Laboratory results published in patent US20250250252A1, “PIPERIDINYLBENZONITRILE DERIVATIVES AS INHIBITORS OF GLUTAMINYL-PEPTIDE CYCLOTRANSFERASE AND GLUTAMINYL-PEPTIDE CYCLOTRANSFERASE LIKE PROTEIN” (Boehringer Ingelheim International GmbH, priority 2024, published 2025).

Assays:
QPCT = QPCT (Homo sapiens (Human), UniProt Q16769); test: Assay A: biochemical QPCT activity assay (MALDI-TOF MS); conditions: read-out: Inhibition of QPCT: IC50
Experimental: (§1) QPCT or QPCTL dependent conversion of N-terminal glutamine to pyroglutamate of CD47 was monitored via MALDI-TOF MS. Test compounds were dissolved in 100% DMSO and serially diluted into clear 1,536-well microtiter plates. Enzymatic reactions were set up in assay buffer containing 20 mM Tris pH 7.5, 0.1 mM TCEP, 0.01% BSA, and 0.001% Tween20. […] The plates were incubated for 10 min in a humidified incubator at 24° C. Subsequently, 2.5 μL of CD47 peptide substrate surrogate (^19[…]^33) was added to each well (final concentration: 10 μM for QPCTL/20 μM for QPCT). The plates were mixed for 30 sec at 1,000 rpm and subsequently incubated for 40 min in a humidified incubator at 24° C. […] The plates were sealed with an adhesive foil, mixed for 30 s at 1,000 rpm and stored at room temperature until preparation of the MALDI target plates. […] QPCT or QPCTL activity was monitored by calculating the ratio between product and internal standard signals followed by normalization to high (100% activity) and low (0% activity) controls. Determination of compound potencies was obtained by fitting the dose-response data to a four-parameter logistical equation.

isolated QPCTL = isolated QPCTL (Homo sapiens (Human), UniProt Q9NXS2); conditions: disclosed in WO 2023/205173 [00470]; read-out: inhibitory activity on isolated QPCTL IC50; cited from earlier work
Chain of isolated QPCTL (Q9NXS2 whole entry, species assumed): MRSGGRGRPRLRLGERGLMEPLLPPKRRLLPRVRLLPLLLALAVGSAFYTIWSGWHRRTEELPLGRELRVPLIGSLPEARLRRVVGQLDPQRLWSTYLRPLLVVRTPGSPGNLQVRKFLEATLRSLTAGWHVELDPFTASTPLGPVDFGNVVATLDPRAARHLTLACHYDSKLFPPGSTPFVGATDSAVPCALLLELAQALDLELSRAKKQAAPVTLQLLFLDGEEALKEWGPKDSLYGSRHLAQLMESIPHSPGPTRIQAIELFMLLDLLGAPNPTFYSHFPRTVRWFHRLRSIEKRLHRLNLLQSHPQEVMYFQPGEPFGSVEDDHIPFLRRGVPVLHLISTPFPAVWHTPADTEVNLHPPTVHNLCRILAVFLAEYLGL

QPCTL = QPCTL (Homo sapiens (Human), UniProt Q9NXS2); test: Assay A: biochemical QPCTL activity assay (MALDI-TOF MS); conditions: read-out: Inhibition of QPCTL: IC50
Chain of QPCTL (Q9NXS2 whole entry): as the sequence (Q9NXS2 whole entry, species assumed) above
Experimental: as §1

A549 cells = conditions: disclosed in WO 2023/205173 [00470]; read-out: cellular activity in A549 cells EC50; cited from earlier work
[1] = Assay C: Permeability in CACO-2 cells; type: in vitro ADME; conditions: human, Assay C
Experimental: (§2) Caco-2 cells (1-2×10^5 cells/1 cm^2 area) are seeded on filter inserts (Costar transwell polycarbonate or PET filters, 0.4 μm pore size) and cultured (DMEM) for 10 to 25 days. Compounds are dissolved in appropriate solvent (like DMSO, 1-20 mM stock solutions). […] The transport solution (TL) is applied to the apical or basolateral donor side for measuring A-B or B-A permeability (3 filter replicates), respectively. Samples are collected at the start and end of experiment from the donor and at various time intervals for up to 2 hours also from the receiver side for concentration measurement by HPLC-MS/MS or scintillation counting. Sampled receiver volumes are replaced with fresh receiver solution.
(§3) Efflux ratio (ER)=permeability B-A/permeability A-B

CYP3A4 mRNA = test: Assay D: CYP induction screening assay in primary human hepatocytes; type: in vitro ADME; conditions: 48 h
Experimental: Cryopreserved plateable human hepatocytes (single donor, BioIVT) were thawed and plated in Collagen-I coated 96-well-plates at a cell density of 0.07 million cells per well.
After a 6 h attachment period, the seeding medium was replaced by serum-free William's medium E supplemented with Matrigel (0.25 mg/ml) and allowed to recover overnight. 24 h post-seeding, serum-free Williams E medium containing the test compound at a final concentration of 10 μM and a final DMSO content of 0.1% and 0.1% DMSO (solvents treated control), respectively, was added to predefined wells. Exposure solutions were renewed after 24 h.
After 48 h of treatment in total, the effect of the test compounds on CYP3A4 mRNA expression was assessed using the QuantiGene Plex Gene Expression Assay. Hepatocytes were lysed and total RNA was extracted using the QuantiGene Sample Processing Kit according to the instructions of the manufacturer.
mRNA quantification was conducted using a customized QuantiGene Plex Panel to analyse CYP3A4 and the housekeeper genes RPL32, EIF4E2 and GUSB according to the instructions of the manufacturer and measured on a Luminex™ instrument. Signal was reported as median fluorescence intensity (MFI), which is proportional to the number of target RNA molecules present in the sample.
For calculation of CYP3A4 mRNA induction, the signal for CYP3A4 was normalized against the geometric mean of the signal obtained for the housekeeper genes for hepatocytes exposed to test compounds in relation to solvent-treated samples according to the following equation:
n-fold induction=(MFI CYP3A4 (treated)/Xgeo MFI (RPL32,EIF4E2,GUSB))/(MFI CYP3A4 (solvent control)/Xgeo MFI (RPL32,EIF4E2,GUSB))

murine hepatocytes = test: Assay E: Stability in murine hepatocytes; type: in vitro ADME, mouse; conditions: 1 μM
Experimental: The metabolic degradation of the test compound is assayed in a murine hepatocyte suspension.
Murine hepatocytes (typically cryopreserved) are incubated in an appropriate buffer system (e.g. Dulbecco's modified eagle medium plus 3.5 μg glucagon/500 mL, 2.5 mg insulin/500 mL and 3.75 mg/500 mL hydrocortison) containing 5% species serum.
Following a (typically) 30 min preincubation in an incubator (37° C., 10% CO2) 5 μl of test compound solution (80 μM; from 2 mM in DMSO stock solution diluted 1:25 with medium) are added into 395 μl hepatocyte suspension (cell density in the range 0.25-5 Mio cells/mL, typically 1 Mio cells/mL; final concentration of test compound 1 μM, final DMSO concentration 0.05%).
The cells are incubated for six hours (incubator, orbital shaker) and samples (2 μl) are taken at 0, 0.5, 1, 2, 4 and 6 hours. Samples are transferred into acetonitrile and pelleted by centrifugation (5 min). The supernatant is transferred to a new 96-deepwell plate, evaporated under nitrogen and resuspended.
CLint is calculated as follows CL_[…]=Dose/AUC=(C0/CD)/(AUD+clast/k)×1000/60. C0: initial concentration in the incubation [μM], CD: cell density of vital cells [10e6cells/mL], AUD: area under the data [μM×h], clast: concentration of last data point [μM], k: slope of the regression line for parent decline [h−1].
The calculated in vitro hepatic intrinsic clearance can be scaled up to the intrinsic in vivo hepatic Clearance and used to predict hepatic in vivo blood clearance (CL) by the use of a liver model (well stirred model).
CL_[…]_INVIVO[ml/min/kg]=(CL_[…][μL/min/10e6cells]×hepatocellularity[10e6cells/g liver]×liver factor[g/kg bodyweight])/1000
CL[ml/min/kg]=CL_[…]_INVIVO[ml/min/kg]×hepatic blood flow[ml/min/kg]/(CL_[…]_INVIVO[ml/min/kg]+hepatic blood flow[ml/min/kg])
Hepatocellularity,mouse:120×10e6cells/g liver
Liver factor,mouse:55 g/kg bodyweight
Blood flow,mouse:90 ml/(min×kg)

Ramos cells = conditions: disclosed in WO 2024/020517 [00698]; read-out: cellular activity in Ramos cells IC50; cited from earlier work
CACO-2 cells = test: Assay C: Permeability in CACO-2 cells; type: in vitro ADME; conditions: pair comparison without/with 4-fluoropiperidyl
Experimental: as §2, §3

[2] = tested on: SIRPα signalling induced by A549 cells; test: Assay B: SIRPα signalling assay using A549 cells; type: cell-based; conditions: Homo sapiens, read-out: Inhibition of SIRPα signalling induced by A549 cells: IC50
Experimental: Two cell types are independently used: the Raji cell line (lymphoblast-like human cell line derived from B lymphocytes from a Burkitt's lymphoma patient in 1963) and A549 cells (adenocarcinomic human alveolar basal epithelial cells).
Test compounds were dissolved in 100% DMSO and serially diluted into a white 384-well microtiter cell culture plate (PerkinElmer #60076780 in case of Raji assay; PDL-coated plates Greiner #781945 in case of A549 assay). 5000 Raji cells (ATCC #CC86) or 5000 A549 cells (ATCC #CCL-185) in Assay Complete Cell Plating reagent 30 (DiscoverX 93-0563R30B) were added per well. The assay plate was incubated for 48 h at 37° C., 95% humidity and 5% CO2. 15000 reporter cells (Jurkat PathHunter SIRPαV1, DiscoverX #93-1135C19) were added to each well, and the plate was incubated for 5 h at 37° C., 95% humidity and 5% CO2. Bioassay reagent 1 of the PathHunter Bioassay detection kit (DiscoverX 93-0001) was added to each well of the plate using a multichannel pipette followed by a 15 min incubation at room temperature. Afterwards bioassay reagent 2 was added followed by 60 min incubation at room temperature (incubation in the dark).
The analysis of the data was performed using the luminescence signal generated by betagalactosidase in the PathHunter reporter cell line. The luminescence measurement was done using a Pherastar Multi-Mode Reader. Dose-response curves & IC50 data were calculated with 4-parameter sigmoidal dose response formula.

Chain of QPCT (Q16769 29-361): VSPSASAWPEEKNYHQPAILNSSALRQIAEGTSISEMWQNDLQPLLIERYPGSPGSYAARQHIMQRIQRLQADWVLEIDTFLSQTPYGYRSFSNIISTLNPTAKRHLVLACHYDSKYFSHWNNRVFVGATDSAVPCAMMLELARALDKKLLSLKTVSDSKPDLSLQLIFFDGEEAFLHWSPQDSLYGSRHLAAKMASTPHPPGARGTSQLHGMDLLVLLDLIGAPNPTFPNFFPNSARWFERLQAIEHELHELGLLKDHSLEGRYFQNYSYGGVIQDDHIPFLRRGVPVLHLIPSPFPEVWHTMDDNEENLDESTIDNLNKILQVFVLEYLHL

For `Cn1c(N)nnc1C1CCN(c2c(C#N)cccc2-c2ccc(F)nc2)CC1` [Compound 14, reference compound], the IC50 (QPCT) is given as less than 1 nM, the IC50 (isolated QPCTL) is given as less than 1000 nM and the IC50 (QPCTL) is given as 1 nM. For the same compound, the EC50 (A549 cells) was less than 1000 nM, the efflux ratio ([1]; Caco-2, pH 7.2, permeability B-A/permeability A-B, read-out: Efflux Ratio) was 22.2 and the Papp A→B ([1]; pH 7.2, CACO-2 cells) was 0.7 ×10⁻⁶ cm/s. For the same compound, the “n-fold induction of CYP3A4 at 10 μM” value (CYP3A4 mRNA) was 1.9 n-fold and the “Mouse Hepatocyte Stability QH” value (murine hepatocytes) was 31%.
For `Cn1cnnc1C1CCN(c2c(C#N)cccc2-c2ccc(F)nc2)CC1` [(1)/QP5020, reference compound], the IC50 (Ramos cells) is listed as less than 100 nM, the “CACO2 Perm.” value (CACO-2 cells) is listed as 28.0 10^−6 cm/sec and the IC50 [2] is listed as 8 nM. For the same compound, the “Mouse Hepatocyte Stability QH” value (murine hepatocytes) was 82%.
